The EC50 is the concentration at which the effect is half-maximal. For orientation: AC50 means the midpoint of the concentration-response curve, whichever way the signal moves.

Structures are written as SMILES. Activity calls are given as the source filed them. Some results are limits rather than exact numbers.

Our source for the EC50 and AC50 values is ChEMBL document CHEMBL1201862, “PubChem BioAssay data set” (2004).

Test [1] deals with T1, Oxysterols receptor LXR-beta (Homo sapiens, UniProt P55055).
T1 sequence (P55055 whole entry): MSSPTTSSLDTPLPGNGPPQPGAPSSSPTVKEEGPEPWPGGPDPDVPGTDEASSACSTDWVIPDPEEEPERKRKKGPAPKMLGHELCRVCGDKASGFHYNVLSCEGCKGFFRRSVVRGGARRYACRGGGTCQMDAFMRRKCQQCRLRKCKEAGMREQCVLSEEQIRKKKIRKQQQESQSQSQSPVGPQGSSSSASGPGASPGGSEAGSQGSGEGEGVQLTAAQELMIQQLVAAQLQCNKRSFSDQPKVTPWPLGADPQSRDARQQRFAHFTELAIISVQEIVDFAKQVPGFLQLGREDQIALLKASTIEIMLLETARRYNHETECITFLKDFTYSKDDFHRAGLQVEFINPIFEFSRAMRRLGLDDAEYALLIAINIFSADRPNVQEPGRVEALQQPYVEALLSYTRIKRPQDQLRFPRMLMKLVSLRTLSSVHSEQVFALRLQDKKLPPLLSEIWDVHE
The class given is functional, cell-based.

The nature of test [2]: inhibitors of TRPM1-promoter reporter in SK-MEL-5 – cell-based, luciferase, dry powder, set 8, MITF inhibitor project, dose response (AID 624430). The class given is functional.
Test [3] is described as follows: MITF Orthogonal Assay: SK-MEL-5 CTG Assay Measured in Cell-Based System Using Plate Reader - 2084-02_Inhibitor_Dose_DryPowder_Activity_Set7. The class given is functional.
Test [4] can be described thus: MITF: Counter assay: A375 proliferation Measured in Cell-Based System Using Plate Reader - 2084-03_Inhibitor_Dose_DryPowder_Activity_Set8. Conditions: A-375. The format is functional.
For test [5], the target named is Paired box protein Pax-8 (Homo sapiens, UniProt Q06710). The test can be described thus: PAX8 transcriptional activity inhibition in RMG-I – RMG-I cells, luciferase, cherry-pick, dose response (AID 687027).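 Note: luciferase reporter driven by Pax8 target thyroperoxidase promoter measured by SteadyGlo luminescence.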 The class given is functional, cell-based.
A short description of test [6]: OVCAR8 cell viability loss – plate reader, dry powder samples, PAX8 project, dose response (AID 743197). As to conditions: OVCAR-8. The class given is functional, cell-based.
Test [7] in a line: OVCAR-3 cell viability loss – plate reader, dry powder samples, PAX8 inhibitor project, dose response (AID 743044). The class given is functional, cell-based.
Test [8] can be described thus: general mammalian cell viability loss – inhibitor set, cherry-pick, set 2, cytotoxicity control for miR-122 modulator project, dose response (AID 720697). The format is functional, cell-based.
Test [9] can be described thus: viability loss in CEM21 cells – cell-based, CellTiter-Glo luminescence, cherry-picked, cytotoxicity control for viral fusion inhibitor project, dose response (AID 652042).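 Note: potency for signal decrease meaning cytotoxicity.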 The class given is functional.
Test [10] in a line: reduced cellular PGC1a acetyl-lysine signal – cell-based, cherry-picked samples, dose response (AID 720514).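 Note: potency may reflect raised or lowered acetylation signal.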 The class given is functional.
A short description of test [11]: P. falciparum Dd2 growth inhibitors, dose response, SYBR Green, cherry-picked samples (AID 1159567). The format is functional, cell-based.
Test [12] in a line: blockers of HIV-1 envelope-mediated cell-cell fusion – cherry-pick, dose response (AID 652057). The format is functional, cell-based.
The nature of test [13]: A549 cell cytotoxicity, dose response, cytotoxicity control, plate reader, cherry-pick, antagonist series (AID 743412). The format is functional, cell-based.
Test [14] relates to HEK293. The test is described as follows: EBV LMP1 TES2 canonical NF-kB signalling blockers – cell-based, HEK293, luciferase, cherry-pick, dose response (AID 588343). The format is functional. Conditions: Homo sapiens.
A short description of test [15]: blockade of melanocortin 4 receptor signaling – cell-based, plate reader, cherry pick, counter-screen for LGR2 antagonist project, dose response (AID 743444).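 Note: transfected HEK 293 cells stimulated with alpha-MSH peptide; potency of inhibitors of the alpha-MSH evoked signal.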 The format is functional.
Test [16] can be described thus: blockers of bursicon-stimulated LGR2 cAMP reporter – cell-based, HEK293, CRE-luciferase reporter, cherry pick, set 2, dose response (AID 743343).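 Note: transfected cells were stimulated with diluted bursicon conditioned medium after compound addition.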 The format is functional.
A short description of test [17]: T. cruzi growth inhibition in host cells, dose response, cell-based, plate reader, dry powder, set 2 (AID 652275). The format is functional.
The nature of test [18]: A2780 cell killing – plate reader, dry powder samples, cytotoxicity control, dose response (AID 743046). The class given is functional, cell-based.
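Throughout, for EC50: agonist activity at LXR measured by a cell-based luminescence readout across a dose range, run as a counterscreen for daf-12 agonists; HEK293 cells with Gal4-LXR fusion and GAL4-driven luciferase reporter; potency for activation of Gal4-LXR reporter so compounds are agonists.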

Paired box protein Pax-8, sequence (Q06710 whole entry): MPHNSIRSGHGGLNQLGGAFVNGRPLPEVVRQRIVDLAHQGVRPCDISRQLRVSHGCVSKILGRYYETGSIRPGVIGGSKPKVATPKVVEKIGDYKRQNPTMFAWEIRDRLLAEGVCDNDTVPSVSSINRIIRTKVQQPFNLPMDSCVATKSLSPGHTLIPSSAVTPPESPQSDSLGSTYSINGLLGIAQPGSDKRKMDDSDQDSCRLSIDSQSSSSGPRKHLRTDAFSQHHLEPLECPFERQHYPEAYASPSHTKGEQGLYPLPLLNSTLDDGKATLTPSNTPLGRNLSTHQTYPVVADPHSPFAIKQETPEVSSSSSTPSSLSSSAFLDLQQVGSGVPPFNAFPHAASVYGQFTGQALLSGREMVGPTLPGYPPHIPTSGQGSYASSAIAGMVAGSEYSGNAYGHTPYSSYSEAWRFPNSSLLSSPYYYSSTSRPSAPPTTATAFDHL

For the compound `CCOc1ccc(-c2c(=O)n(O)c3ccccc3[n+]2[O-])cc1`, the EC50 in test [1] is > 67.5 µM (inactive).

In the case of `CC1=C(Nc2ccc(Cl)cc2)C(=O)c2ccccc2C1=O`, the values for the AC50 in [2], in test [3] and in [4] were 40.7 µM (active), 0.802 µM (active) and > 70 µM (inactive), respectively.

In the case of `CCCn1/c(=N/C(=O)c2ccco2)c(C(=O)OCC)cc2c(=O)n3ccccc3nc21`, the EC50 in test [1] was > 67.5 µM (inactive).

As to `CO[C@H]1CN(C)C(=O)c2cc(NC(=O)c3ccc(-c4ccccc4)cc3)ccc2OC[C@@H](C)NC[C@@H]1C`, the AC50 was 22.6 µM (active) in test [5], 58.4 µM (active) in test [6] and 44.6 µM (active) in [7].

In the case of `CCNC(=O)C[C@@H]1CC[C@H]2[C@H](COc3ccc(NC(=O)c4cccc(C(F)(F)F)c4)cc3C(=O)N2C)O1`, the AC50 in test [8] was 3.05 µM (active).

In the case of `Cc1ccc(-c2ccc3c(c2)O[C@@H](CN(C)C(=O)C2CCCCC2)[C@H](C)CN([C@H](C)CO)S3(=O)=O)cc1`, the AC50 in test [9] is 22 µM (active); in test [10], 15 µM (active); in test [11] it was 3.07 µM (active); in test [12], 20.7 µM (active).

As for `O=C(Nc1ccc(N2CCOCC2)cc1)c1cnccn1`, the AC50 in test [13] was > 52 µM (inactive); in test [14] it was 2.09 µM (active); in test [15], 3.9 µM (active); in test [16] it was 4.37 µM (active).

Take `OC[C@H]1[C@H](c2ccc(-c3ccccc3)cc2)[C@@H]2CN(Cc3cncnc3)CCCCN12`: in [17], the AC50 was 0.185 µM (active).

`COc1ccc(NC(=O)N2CCCCN3[C@@H](CO)[C@@H](c4ccc(C5=CCCC5)cc4)[C@@H]3C2)cc1`: the AC50 in [6] was 64.1 µM (active); in test [18], 52.9 µM (active); in test [7], 41.6 µM (active).
